Consider 4 compounds from paper PMC10460054, “Multiplex Quantitative Analysis of 9 Compounds of Scutellaria baicalensis Georgi in the Plasma of Respiratory Syncytial Virus-Infected Mice Based on HPLC-MS/MS and Pharmacodynamic Effect Correlation Analysis” (Molecules, 2023).

Data set [1] in a line: Stability of 9 compounds in mouse plasma under storage conditions. Conditions: n = 6; for Stability 3-Freeze-Thaw Cycles RE: 3 times repeated freeze-thaw at −80 °C; for Stability Short-Term RE: 12 h at 4 °C; for Stability Long-Term RE: −20 °C for 20 days. The data set is classed as in vitro ADME.
A short description of data set [2]: HPLC-MS/MS quantification of 9 compounds in plasma of RSV-infected mice after Scutellaria baicalensis Georgi administration. The data set is classed as in vivo, BALB/c mice. Details: drug-containing plasma content: unit not given here. The note with it: for time of highest plasma concentration, first peak / time of highest plasma concentration, second peak: RSV-infected mice after Scutellaria baicalensis Georgi administration, double peak phenomenon; for drug-containing plasma content: RSV-infected mice, mean ± SD, n = 6. As for the experimental part:
The study employed a Vanquish high-performance liquid chromatograph for chromatographic separation, with a HALO C18 column (2.1 × 100 mm, 2.7 μm) as the chromatographic column.
Mass spectrometry was performed using a quadrupole-electrostatic field orbitrap desktop mass spectrometer equipped with an electrospray ion source (ESI). The ESI parameters were set as follows: the pyrolysis voltage was 3.0 kV, the auxiliary gas flow rate was 10 mL/min, the ion transport tube temperature was 350 °C, the auxiliary gas temperature was 350 °C, and the sheath gas flow rate was 45 L/min. Quantitative analysis was performed using the selective ion detection (SIM) mode (Table S1).
Male BALB/c mice, aged 2 weeks and weighing 10–12 g, were chosen for this study. They were acclimatized for 2 days and then randomly assigned to one of five groups: blank (C), model (M), positive control ribavirin (Y1), positive control lianhua qingwen granules (Y2), and Scutellaria baicalensis Georgi administration (H1-H12). Each group consisted of six mice, and their weights were recorded. The mice were pre-administered for 2 days, and on the third day, RSV virus (TCID50 = 10^−6) was inoculated through intranasal infection at a volume of 35 μL per mouse. The blank group was inoculated with normal saline of the same volume. After the inoculation of the RSV virus, the blank and model groups were given distilled water by gavage, while the drug-administered groups were given an aqueous extract of Scutellaria baicalensis Georgi (10 µL/g) once a day for 3 days. The mice were observed daily for their mental status, hair color, diet, and body weight. […] It was then centrifuged at 3000 r/min for 10 min, and the upper layer of plasma was stored at −80℃. Lung tissues were weighed, the lung index was calculated, and the lung tissues were stored in the refrigerator at −80 °C for freezing.
The plasma sample (200 μL) was processed in a 5 mL tube. Subsequently, 10 μL of 5% formic acid and 20 μL of 2 mol/L hydrochloric acid were added, followed by vortexing for 1 min with 10 μL of internal standard solution (100 ng/mL tinidazole). The extraction was completed by adding 2000 μL of acetonitrile solvent and vortexing for 2 min. The mixture was then centrifuged at 12,000 r/min at 4 °C for 10 min, and the supernatant solution was collected in a new centrifuge tube. The supernatant solution was dried by nitrogen at room temperature before being redissolved in 50 μL of 70% acetonitrile solution containing 0.1% formic acid. After vortexing for 1 min, the solution was centrifuged at 12,000 r/min at 4 °C for 10 min, and the resulting supernatant was injected for analysis. The injection volume was 3 μL.
The drug-containing plasma at different time points was subjected to sample treatment. The HPLC-MS/MS analysis method was used to quantitatively detect the 9 compounds in the ion detection (SIM) mode. According to the relative peak area value = index peak area/internal standard peak area, the corresponding concentration value was calculated by substituting the standard curve of each component.

In data set [3] the test system is respiratory syncytial virus (RSV). The experiment in a line: Lung index and lung index repair rate in RSV-infected mice. The data set is classed as in vivo. Conditions: positive control groups. On the procedure:
(§1) Male BALB/c mice, aged 2 weeks and weighing 10–12 g, were chosen for this study. They were acclimatized for 2 days and then randomly assigned to one of five groups: blank (C), model (M), positive control ribavirin (Y1), positive control lianhua qingwen granules (Y2), and Scutellaria baicalensis Georgi administration (H1-H12). Each group consisted of six mice, and their weights were recorded. The mice were pre-administered for 2 days, and on the third day, RSV virus (TCID50 = 10^−6) was inoculated through intranasal infection at a volume of 35 μL per mouse. The blank group was inoculated with normal saline of the same volume. After the inoculation of the RSV virus, the blank and model groups were given distilled water by gavage, while the drug-administered groups were given an aqueous extract of Scutellaria baicalensis Georgi (10 µL/g) once a day for 3 days. The mice were observed daily for their mental status, hair color, diet, and body weight. […] Lung tissues were weighed, the lung index was calculated, and the lung tissues were stored in the refrigerator at −80 °C for freezing.
Based on the recorded body weight and lung tissue weight of mice in the blank, model, positive control, and administration groups, the lung index and lung index repair rate were calculated for each group. […]

The test system is the same in data set [4]. Briefly: Lung tissue viral load (RSV-F real-time PCR) and inhibition rate in RSV-infected mice. The class given is in vivo. The note with it: positive control groups. On the procedure: as §1, with “volume.” for “volume. After the inoculation of the RSV virus, the blank and model groups were given distilled water by gavage, while the drug-administered groups were given an aqueous extract of Scutellaria baicalensis Georgi (10 µL/g) once a day for 3 days. The mice were observed daily for their mental status, hair color, diet, and body weight.”
The F protein is a RSV-specific protein, so it can be used as a PCR gene indicator to indicate the viral load of lung tissue. […] After quantification, the RNA was reverse transcribed into cDNA, and the SYBR Green Master Mix reagent was used as the reaction system. […] The viral load inhibition rate was calculated using the 2^−ΔΔCt formula, and a graph depicting the change in lung tissue viral load over time was plotted, with time as the abscissa and lung tissue viral load as the ordinate. […]
A general note: Quantitative PCR measures a nucleic acid by following its amplification.

[5] abbreviates: high QC (20,000 or 10,000 ng/mL).
Where [6] appears, read: 0.083 h after last gavage of Scutellaria baicalensis Georgi extract.
Where [7] appears, read: 0.167 h after last gavage of Scutellaria baicalensis Georgi extract.
Where [8] appears, read: 0.25 h after last gavage of Scutellaria baicalensis Georgi extract.
Where [9] appears, read: 0.5 h after last gavage of Scutellaria baicalensis Georgi extract.
The mark [10] stands for this setting: 1 h after last gavage of Scutellaria baicalensis Georgi extract.
Where [11] appears, read: 2 h after last gavage of Scutellaria baicalensis Georgi extract.
Setting [12] is: 4 h after last gavage of Scutellaria baicalensis Georgi extract.
[13] abbreviates: 6 h after last gavage of Scutellaria baicalensis Georgi extract.
The mark [14] stands for this setting: 8 h after last gavage of Scutellaria baicalensis Georgi extract.
Where [15] appears, read: 10 h after last gavage of Scutellaria baicalensis Georgi extract.
[16] abbreviates: 12 h after last gavage of Scutellaria baicalensis Georgi extract.
The mark [17] stands for this setting: 24 h after last gavage of Scutellaria baicalensis Georgi extract.

For the compound `COc1c(OC2OC(C(=O)O)C(O)C(O)C2O)cc2oc(-c3ccccc3)cc(=O)c2c1O` [Oroxylin A 7-O-beta-D-glucuronide], the “Stability 3-Freeze-Thaw Cycles RE” value in data set [1] (setting [5]) was −0.56%; in data set [1] (low QC (12.5 or 25.6 ng/mL)), 6.23%; in data set [1] (medium QC (320 or 160 ng/mL)), 3.08%. Also, the “Stability Short-Term RE” value is recorded as −0.23% in data set [1] (setting [5]), 7.34% in data set [1] (low QC (12.5 or 25.6 ng/mL)) and 1.89% in data set [1] (medium QC (320 or 160 ng/mL)). Also, the “Stability Long-Term RE” value in data set [1] (setting [5]) was 0.55%; in data set [1] (low QC (12.5 or 25.6 ng/mL)), 7.73%; in data set [1] (medium QC (320 or 160 ng/mL)), 2.21%. Besides, in data set [2], the “time of highest plasma concentration, first peak” value (“time … first peak” for short) stood at 0.167 h. For the same compound, the “time of highest plasma concentration, second peak” value (“time … second peak” below) in data set [2] turned out to be 6 h. Moreover, the drug-containing plasma content was determined as 462.93± 10.74 in data set [2] (setting [6]); 603.78± 13.98 in data set [2] (setting [7]); 143.83± 6.73 in data set [2] (setting [8]); 315.26± 12.78 in data set [2] (setting [9]); 138.74± 3.62 in data set [2] (setting [10]); 315.26± 12.78 in data set [2] (setting [11]). The drug-containing plasma content in data set [2] (setting [12]) was determined as 412.32± 18.42; in data set [2] (setting [13]), 1008.71± 54.19; in data set [2] (setting [14]), 286.84± 8.27; in data set [2] (setting [15]), 160.51± 5.17; in data set [2] (setting [16]), 29.40± 0.71; in data set [2] (setting [17]), 0.

On to `COc1c(O)cc2oc(-c3ccccc3)cc(=O)c2c1O` [Oroxylin A], for which the “Stability 3-Freeze-Thaw Cycles RE” value is −5.29% in data set [1] (setting [5]), −4.26% in data set [1] (low QC (12.5 or 25.6 ng/mL)) and −8.41% in data set [1] (medium QC (320 or 160 ng/mL)). Besides, the “Stability Short-Term RE” value in data set [1] (setting [5]) is on record as −4.07%; in data set [1] (low QC (12.5 or 25.6 ng/mL)), −3.30%; in data set [1] (medium QC (320 or 160 ng/mL)), −5.14%. Also, the “Stability Long-Term RE” value is listed as −7.03% in data set [1] (setting [5]), −6.71% in data set [1] (low QC (12.5 or 25.6 ng/mL)) and −5.78% in data set [1] (medium QC (320 or 160 ng/mL)). In addition, in data set [2], the “time … first peak” value was 0.167 h. Also, the “time … second peak” value in data set [2] came out at 6 h. Further, the drug-containing plasma content was 13.47± 9.43 in data set [2] (setting [6]); 745.77± 35.54 in data set [2] (setting [7]); 63.52± 1.32 in data set [2] (setting [8]); 40.44± 4.81 in data set [2] (setting [9]); 160.88± 15.86 in data set [2] (setting [10]); 75.84± 5.43 in data set [2] (setting [11]). Further, the drug-containing plasma content in data set [2] (setting [12]) came to 486.23± 8.65; in data set [2] (setting [13]), 1063.52± 101.32; in data set [2] (setting [14]), 300.68± 17.25; in data set [2] (setting [15]), 19.18± 2.56; in data set [2] (setting [16]) it was 13.60± 7.94; in data set [2] (setting [17]) it was 0.

Regarding `COc1c(O[C@@H]2O[C@H](C(=O)O)[C@@H](O)[C@H](O)[C@H]2O)cc(O)c2c(=O)cc(-c3ccccc3)oc12` [Wogonoside], the “Stability 3-Freeze-Thaw Cycles RE” value in data set [1] (setting [5]) is recorded as 1.79%; in data set [1] (low QC (12.5 or 25.6 ng/mL)) it was −8.61%; in data set [1] (medium QC (320 or 160 ng/mL)), 0.60%. Also, the “Stability Short-Term RE” value is on record as 3.40% in data set [1] (setting [5]), −3.08% in data set [1] (low QC (12.5 or 25.6 ng/mL)) and −1.39% in data set [1] (medium QC (320 or 160 ng/mL)). The “Stability Long-Term RE” value was 3.40% in data set [1] (setting [5]), −2.30% in data set [1] (low QC (12.5 or 25.6 ng/mL)) and −2.01% in data set [1] (medium QC (320 or 160 ng/mL)). The “time … first peak” value in data set [2] is listed as 0.167 h. Further, the “time … second peak” value in data set [2] is 6 h. Further, the drug-containing plasma content is on record as 553.37± 9.22 in data set [2] (setting [6]); 1829.58± 102.08 in data set [2] (setting [7]); 928.49± 33.77 in data set [2] (setting [8]); 776.20± 41.04 in data set [2] (setting [9]); 1078.05± 63.01 in data set [2] (setting [10]); 1333.51± 38.28 in data set [2] (setting [11]). For the same compound, the drug-containing plasma content in data set [2] (setting [12]) was 1372.78± 53.34; in data set [2] (setting [13]), 3829.58± 182.08; in data set [2] (setting [14]) it was 1825.89± 177.13; in data set [2] (setting [15]), 318.50± 23.92; in data set [2] (setting [16]), 188.85± 19.38; in data set [2] (setting [17]), 0.

As to `NC(=O)c1ncn([C@@H]2O[C@H](CO)[C@@H](O)[C@H]2O)n1` [Y1, ribavirin], the “Repair Rate (lung index)” value in data set [3] is recorded as 58.33%. Also, the “Lung Index” value in data set [3] (mean ± SD, n = 6) was determined as 0.85 ± 0.08 %. In data set [4], the “Inhibitory Rates (viral load)” value is 61.26%. Besides, the “Viral Load” value in data set [4] (mean ± SD, n = 6) is given as 2.27 ± 0.37 ×10^5 Copies/Ml.
